Results on one molecule are retold here after US5693324A, “Tris(isonitrile) copper(I) sulfates for preparing radionuclide complexes” (The DuPont Merck Pharmaceutical Company, priority 1995, dated 1997).

The nature of this data set: water solubility of tris(isonitrile)copper(I) complexes. It counts as physicochemical.

For the molecule `O=S(=O)([O-])[O-].[C-]#[N+]CC(C)(C)OC.[C-]#[N+]CC(C)(C)OC.[C-]#[N+]CC(C)(C)OC.[C-]#[N+]CC(C)(C)OC.[C-]#[N+]CC(C)(C)OC.[C-]#[N+]CC(C)(C)OC.[Cu+].[Cu+]` [[Cu(MIBI)3]2 [SO4], tris(1-isocyano-2-methoxy-2-methylpropane)copper(I) sulfate], for the setting “compared with the tris(isonitrile)copper(I) adducts of U.S. Pat. No. 4,885,100”, the “water solubility, relative” value is “more soluble”. This molecule also registered a water solubility (sulfate complexes of the present invention, in water) above 100 mg/mL.
